Measured values as given in US20150105252A1, “SUBSTITUTED PYRAZOLES AS HERBICIDES” (E I DU PONT DE NEMOURS AND COMPANY, priority 2013, published 2015).

How the values were obtained:
velvetleaf [1] = assay: Test C postemergence; format: in vivo, Abutilon theophrasti; conditions: for Plant response rating (scale of 0 to 100 where 0 is no effect and 100 is complete control), Velvetleaf: Postemergence, 31 g ai/ha, visually evaluated after 13 to 15 days; for Velvetleaf plant response rating / Plant response rating, Velvetleaf: postemergence; for Velvetleaf plant response rating: 62 g ai/ha, scale 0 to 100
Method in brief: (§1)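 Visual rating, 0–100 scale (0 no effect, 100 complete control), vs untreated controls after 13–15 d greenhouse. Pre: seeds in loam/sand, treated at sowing. Post: plants in peat-based mix, 1- to 4-leaf (2–18 cm). Solvent + surfactant formulation, non-phytotoxic.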

nutsedge, yellow = assay: Test C preemergence; format: in vivo, Cyperus esculentus; conditions: for Plant response rating (scale of 0 to 100), Nutsedge, Yellow: Preemergence, 250 g ai/ha
Method in brief: as §1

crabgrass, large [2] = assay: Test A preemergence; format: in vivo, Digitaria sanguinalis; conditions: preemergence
Method in brief: (§2)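 Visual injury ratings, 0 = no effect to 100 = complete control, taken about 10 days after treatment against untreated controls. Test chemicals, in a non-phytotoxic surfactant-containing solvent, were sprayed onto soil preemergence or onto one- to two-leaf plants (2–10 cm) postemergence, in loam–sand soil under greenhouse conditions.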

barnyardgrass = assay: Test C preemergence; format: in vivo, Echinochloa crus-galli; conditions: for Plant response rating (scale of 0 to 100), Barnyardgrass: Preemergence, 250 g ai/ha
Method in brief: as §1

lambsquarters = assay: Test C preemergence; format: in vivo, Chenopodium album; conditions: for Plant response rating (scale of 0 to 100), Lambsquarters: Preemergence, 250 g ai/ha
Method in brief: as §1

corn = assay: Test C postemergence; format: in vivo, Zea mays; conditions: for Plant response rating (scale of 0 to 100 where 0 is no effect and 100 is complete control), Corn: Postemergence, 31 g ai/ha, visually evaluated after 13 to 15 days; for Corn plant response rating / Plant response rating, Corn: postemergence; for Corn plant response rating: 62 g ai/ha, scale 0 to 100
Method in brief: as §1

rice = assay: Test B flood; format: in vivo, Oryza sativa; conditions: 250 g ai/ha, visual rating on 0 to 100 scale (0 no effect, 100 complete control), 13 to 15 days
Method in brief: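 Two-leaf-stage plants, pots flooded (3 cm above soil) and treated through the water, which stayed at that depth. After 13–15 days in greenhouse conditions, visual assessment versus controls: 0 is no effect, 100 complete control, dash means no result.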

crabgrass, large [3] = assay: Test C postemergence; format: in vivo, Digitaria sanguinalis; conditions: for Plant response rating (scale of 0 to 100 where 0 is no effect and 100 is complete control), Crabgrass, Large: Postemergence, 31 g ai/ha, visually evaluated after 13 to 15 days; for Crabgrass, Large plant response rating / Plant response rating, Crabgrass, Large: postemergence; for Crabgrass, Large plant response rating: 62 g ai/ha, scale 0 to 100
Method in brief: as §1

waterhemp = assay: Test C preemergence; format: in vivo, Amaranthus rudis; conditions: for Plant response rating (scale of 0 to 100), Waterhemp: Preemergence, 250 g ai/ha
Method in brief: as §1

velvetleaf [4] = assay: Test A preemergence; format: in vivo, Abutilon theophrasti; conditions: preemergence
Method in brief: as §2

morningglory = assay: Test A postemergence; format: in vivo, Ipomoea spp.
Method in brief: as §2

galium = assay: Test C postemergence; format: in vivo, Galium aparine; conditions: for Plant response rating (scale of 0 to 100 where 0 is no effect and 100 is complete control), Galium: Postemergence, 31 g ai/ha, visually evaluated after 13 to 15 days; for Galium plant response rating / Plant response rating, Galium: postemergence; for Galium plant response rating: 62 g ai/ha, scale 0 to 100
Method in brief: as §1

foxtail, giant [5] = assay: Test A preemergence; format: in vivo, Setaria faberii; conditions: preemergence
Method in brief: as §2

foxtail, giant [6] = assay: Test A postemergence; format: in vivo, Setaria faberii
Method in brief: as §2

[7] = 250 g ai/ha, scale 0 to 100 (0 no effect, 100 complete control)
[8] = 125 g ai/ha, scale 0 to 100, 0 no effect, 100 complete control
[9] = preemergence, 31 g ai/ha, visual rating, scale 0 to 100 (0 no effect, 100 complete control), 13 to 15 days
[10] = preemergence, 62 g ai/ha, scale 0 to 100 (0 no effect, 100 complete control), 13 to 15 days
[11] = preemergence, 125 g ai/ha, scale 0 to 100, 0 is no effect, 100 is complete control
[12] = 125 g ai/ha, visual injury, 0 to 100 scale, approx. 10 days
[13] = 500 g ai/ha, visual injury after approx. 10 days, 0 to 100 scale (0 no effect, 100 complete control)
[14] = preemergence, 31 g ai/ha, scale 0 to 100 (0 no effect, 100 complete control), 13 to 15 days
[15] = Postemergence, 500 g ai/ha, visual rating after approx. 10 days, 0 to 100 scale (0 no effect, 100 complete control)
[16] = postemergence, 125 g ai/ha, about 10 days, visual rating on 0 to 100 scale (0 no effect, 100 complete control)
[17] = preemergence, 125 g ai/ha, 13 to 15 days, scale 0 to 100, 0 = no effect, 100 = complete control
[18] = Postemergence, 500 g ai/ha, 0 to 100 scale (0 no effect, 100 complete control)

CCCc1cc(C(=O)NCC(F)(F)F)nn1Cc1ccnc(C(F)(F)F)c1 [Compound 105]
Plant response rating (scale of 0 to 100 where 0 is no effect and 100 is complete control), Velvetleaf (velvetleaf [1]): 40
Velvetleaf plant response rating (velvetleaf [1]): 55
Plant response rating, Velvetleaf (velvetleaf [1]; [7]): 75
Plant response rating, Velvetleaf (velvetleaf [1]; [8]): 70
Plant response rating (scale of 0 to 100), Nutsedge, Yellow (nutsedge, yellow): 95
Nutsedge, Yellow plant response rating (nutsedge, yellow; [9]): 50
Nutsedge, Yellow plant response rating (nutsedge, yellow; [10]): 85
Nutsedge, Yellow plant response rating (nutsedge, yellow; [11]): 95
Crabgrass, Large plant response rating (crabgrass, large [2]; [12]): 100
Crabgrass, Large plant response rating (crabgrass, large [2]; [13]): 100
Plant response rating (scale of 0 to 100), Barnyardgrass (barnyardgrass): 100
Barnyardgrass plant response rating (barnyardgrass; [14]): 98
Barnyardgrass plant response rating (barnyardgrass; [10]): 100
Barnyardgrass plant response rating (barnyardgrass; [11]): 100
Plant response rating (scale of 0 to 100), Lambsquarters (lambsquarters): 100
Lambsquarters plant response rating (lambsquarters; [9]): 85
Lambsquarters plant response rating (lambsquarters; [10]): 100
Lambsquarters plant response rating (lambsquarters; [11]): 100
Plant response rating (scale of 0 to 100 where 0 is no effect and 100 is complete control), Corn (corn): 15
Corn plant response rating (corn): 40
Plant response rating, Corn (corn; [7]): 85
Plant response rating, Corn (corn; [8]): 60
Plant response rating, Rice (rice): 90
Plant response rating (scale of 0 to 100 where 0 is no effect and 100 is complete control), Crabgrass, Large (crabgrass, large [3]): 35
Crabgrass, Large plant response rating (crabgrass, large [3]): 45
Plant response rating, Crabgrass, Large (crabgrass, large [3]; [7]): 95
Plant response rating, Crabgrass, Large (crabgrass, large [3]; [8]): 90
Plant response rating (scale of 0 to 100), Waterhemp (waterhemp): 100
Waterhemp plant response rating (waterhemp; [9]): 100
Waterhemp plant response rating (waterhemp; [10]): 100
Waterhemp plant response rating (waterhemp; [11]): 100
Velvetleaf plant response rating (velvetleaf [4]; [12]): 100
Velvetleaf plant response rating (velvetleaf [4]; [13]): 100
Morningglory plant response rating (morningglory; [15]): 100
Morningglory plant response rating (morningglory; [16]): 100
Plant response rating (scale of 0 to 100 where 0 is no effect and 100 is complete control), Galium (galium): 55
Galium plant response rating (galium): 85
Plant response rating, Galium (galium; [7]): 90
Plant response rating, Galium (galium; [8]): 85
Foxtail, Giant plant response rating (foxtail, giant [5]; [12]): 100
Foxtail, Giant plant response rating (foxtail, giant [5]; [13]): 100
Foxtail, Giant plant response rating (foxtail, giant [6]; [15]): 100
Foxtail, Giant plant response rating (foxtail, giant [6]; [16]): 100

CCCc1cc(C(=O)NCC)nn1Cc1cc(C(F)(F)F)nn1C [Compound 129]
Plant response rating (scale of 0 to 100 where 0 is no effect and 100 is complete control), Velvetleaf (velvetleaf [1]): 25
Velvetleaf plant response rating (velvetleaf [1]): 65
Plant response rating (scale of 0 to 100), Nutsedge, Yellow (nutsedge, yellow): 75
Nutsedge, Yellow plant response rating (nutsedge, yellow; [9]): 5
Nutsedge, Yellow plant response rating (nutsedge, yellow; [10]): 25
Plant response rating, Nutsedge, Yellow (nutsedge, yellow; [17]): 60
Crabgrass, Large plant response rating (crabgrass, large [2]; [12]): 100
Crabgrass, Large plant response rating (crabgrass, large [2]; [13]): 100
Plant response rating (scale of 0 to 100), Barnyardgrass (barnyardgrass): 100
Barnyardgrass plant response rating (barnyardgrass; [14]): 95
Barnyardgrass plant response rating (barnyardgrass; [10]): 100
Plant response rating, Barnyardgrass (barnyardgrass; [17]): 100
Plant response rating (scale of 0 to 100), Lambsquarters (lambsquarters): 100
Lambsquarters plant response rating (lambsquarters; [9]): 98
Lambsquarters plant response rating (lambsquarters; [10]): 100
Plant response rating, Lambsquarters (lambsquarters; [17]): 100
Plant response rating (scale of 0 to 100 where 0 is no effect and 100 is complete control), Corn (corn): 10
Corn plant response rating (corn): 10
Plant response rating, Corn (corn; [7]): 15
Plant response rating, Corn (corn; [8]): 15
Plant response rating, Rice (rice): 40
Plant response rating (scale of 0 to 100 where 0 is no effect and 100 is complete control), Crabgrass, Large (crabgrass, large [3]): 10
Crabgrass, Large plant response rating (crabgrass, large [3]): 10
Plant response rating, Crabgrass, Large (crabgrass, large [3]; [7]): 20
Plant response rating, Crabgrass, Large (crabgrass, large [3]; [8]): 35
Plant response rating (scale of 0 to 100), Waterhemp (waterhemp): 100
Waterhemp plant response rating (waterhemp; [9]): 100
Waterhemp plant response rating (waterhemp; [10]): 100
Plant response rating, Waterhemp (waterhemp; [17]): 100
Velvetleaf plant response rating (velvetleaf [4]; [12]): 100
Velvetleaf plant response rating (velvetleaf [4]; [13]): 100
Morningglory plant response rating (morningglory; [18]): 100
Morningglory plant response rating (morningglory; [16]): 90
Plant response rating (scale of 0 to 100 where 0 is no effect and 100 is complete control), Galium (galium): 60
Galium plant response rating (galium): 65
Plant response rating, Galium (galium; [7]): 80
Plant response rating, Galium (galium; [8]): 80
Foxtail, Giant plant response rating (foxtail, giant [5]; [12]): 100
Foxtail, Giant plant response rating (foxtail, giant [5]; [13]): 100
Foxtail, Giant plant response rating (foxtail, giant [6]; [18]): 90
Foxtail, Giant plant response rating (foxtail, giant [6]; [16]): 80
